Source: the supplement of paper PMC10307832

Columns and labels:
Experiment in all cases: relative viability (nuclei count vs DMSO), 5 days (fraction); higher = more cells survive
[1] = compound: CC1=CC(=NN1)NC2=CC(=NC(=N2)/C=C/C3=CC=CC=C3)N4CCN(CC4)C + Cc1nc(NC(=O)N2CCC[C@H]2C(N)=O)sc1-c1ccnc(C(C)(C)C(F)(F)F)c1 [Alpelisib] (partner 2 µM)
Procedure, shortened: (§1)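 Lung cancer cell lines, seeded in 1536-well plates, were treated the following day by pin tool with a single drug or with five library-drug doses (not always all listed) in √10 steps on top of a fixed anchor-drug dose. Cells were fixed and nuclei stained in one step after 5 days, and nuclei were counted. Relative viability is the nuclei count for treated wells divided by that for vehicle wells, reported as medians of duplicate plates.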

[2] = compound: COC1=CC(c2cc3ccccc3[nH]2)=N/C1=C\c1[nH]c(C)cc1C [Obatoclax] + CS(=O)(=O)N1CCN(Cc2cc3nc(-c4cccc5[nH]ncc45)nc(N4CCOCC4)c3s2)CC1 [Pictilisib] (partner 1 µM)
Procedure, shortened: as §1

[3] = compound: COC1=CC(c2cc3ccccc3[nH]2)=N/C1=C\c1[nH]c(C)cc1C [Obatoclax] + Nc1ncn([C@H]2C[C@H](O)[C@@H](CO)O2)c(=O)n1 [Decitabine] (partner 2 µM)
Procedure, shortened: as §1

[4] = compound: COC1=CC(c2cc3ccccc3[nH]2)=N/C1=C\c1[nH]c(C)cc1C [Obatoclax] + O=C(CCCCCCC(=O)Nc1ccccc1)NO [Vorinostat] (partner 1 µM)
Procedure, shortened: as §1

Cell Line	relative viability ([1]; first compound 0.08 µM)	relative viability ([1]; first compound 0.253 µM)	relative viability ([1]; first compound 0.8 µM)	relative viability ([1]; first compound 2.53 µM)	relative viability ([1]; first compound 8 µM)	relative viability ([2]; first compound 0.01 µM)	relative viability ([2]; first compound 0.03162 µM)	relative viability ([2]; first compound 0.1 µM)	relative viability ([2]; first compound 0.3162 µM)	relative viability ([2]; first compound 1 µM)	relative viability ([3]; first compound 0.01 µM)	relative viability ([3]; first compound 0.03162 µM)	relative viability ([3]; first compound 0.1 µM)	relative viability ([3]; first compound 0.3162 µM)	relative viability ([3]; first compound 1 µM)	relative viability ([4]; first compound 0.01 µM)	relative viability ([4]; first compound 0.03162 µM)	relative viability ([4]; first compound 0.1 µM)	relative viability ([4]; first compound 0.3162 µM)	relative viability ([4]; first compound 1 µM)
NCI-H1666	0.999	1.07	0.817	0.501	0.183	0.398	0.531	0.479	0.188	0.196	0.731	0.688	0.68	0.586	0.691	1.03	1.08	1.11	0.998	0.754
NCI-H1734	0.601	0.695	0.692	0.375	0.189	0.466	0.457		0.361	0.229	0.504	0.467	0.511	0.491	0.506	0.819	0.887	0.814	0.741	0.31
NCI-H1755	0.9	1.07	0.887	0.456	0.155	0.475	0.383	0.386	0.357	0.269	0.684	0.617	0.697	0.655	0.662	0.698	0.765	0.767	0.753	0.728
NCI-H1793	0.679	0.758	0.654	0.398	0.124	0.288	0.306	0.388	0.297	0.296	0.578	0.47	0.519	0.421	0.415	0.725	0.71	0.714	0.711	0.722
NCI-H1915	1.07	1.07	0.977	0.806	0.324	0.967	0.823	0.968	0.989	0.933	0.268	0.267	0.24	0.256	0.272	0.543	0.426	0.501	0.481	0.538
NCI-H1944	0.816	0.995	0.759	0.568	0.304	0.34	0.332	0.337	0.295	0.336	0.429	0.42	0.464	0.431	0.388	0.519	0.484	0.57	0.561	0.527
NCI-H1975	0.59	0.655	0.42	0.141	0.109	0.299	0.313	0.258	0.292	0.199	0.476	0.365	0.322	0.38	0.278	0.674	0.775	0.73	0.735	0.788
NCI-H1993	0.63		0.581	0.61	0.493	0.804	0.833	0.842	1.02	0.733	0.659	0.545	0.618	0.611	0.612	0.907	0.847	0.857	1.08	0.812
NCI-H2009	1.09	1.19	1.16	1.13	0.241	0.927	0.936	0.706	0.281	0.228	0.371	0.384	0.358	0.305	0.213	0.723	0.73	0.634	0.502	0.251
NCI-H2023	0.482	0.645	0.626	0.417	0.0558	0.29	0.22	0.265	0.151	0.0879	0.216	0.203	0.222	0.159	0.0785	0.489	0.613	0.632	0.553	0.376
NCI-H2085	0.874	0.952	1.07	0.741	0.301	0.446	0.433	0.483	0.338	0.242	0.531	0.484	0.524	0.499	0.472	0.748	0.776	0.669	0.787	0.342
NCI-H2087	1.11	1.04	1.07	0.965	0.135	0.908	0.925	0.825	0.334	0.206	0.215	0.254	0.34	0.135	0.142	0.61	0.81	0.931	0.671	0.723
NCI-H2126	0.776	0.802	0.76	0.674	0.377	0.524	0.464	0.554	0.481	0.482	0.56	0.536	0.574	0.561	0.587	0.748	0.688	0.993	0.807	0.792
NCI-H2170	0.765	0.861	0.668	0.494	0.147	0.369	0.278	0.316	0.334	0.295	0.47	0.393	0.47	0.453	0.441	0.698	0.88	0.742	0.799	0.782
NCI-H2347	1.06	1.15	1.07	0.915	0.517	0.904	0.648	0.695	0.489	0.831	0.607	0.561	0.579	0.563	0.653	0.633	0.71	0.514	0.54	0.465
NCI-H2405	0.687	0.6	0.983	0.414	0.148	0.508	0.461		0.497	0.392	0.769	0.717		0.762	0.63	1.05	1		0.984	0.981
